The values below are quoted from earlier work in patent publication US9415049B2, “Heteroaryl compounds and uses thereof” (Celgene Avilomics Research, Inc., priority 2013, dated 2016).

Each structure is given as a SMILES string.

In the data set the test system is TNF-α, IL-1β, and other inflammatory cytokines. The following applies: LPS-stimulated hPBMC and human whole blood; cited from earlier work.

On to `Cc1nc2cccc(N)c2c(=O)n1C1CCC(=O)NC1=O` (stereo not shown) [compound of formula D, 3-(5-amino-2-methyl-4-oxo-4H-quinazolin-3-yl)-piperidine-2,6-dione], for which the “inhibition of TNF-α, IL-1β, and other inflammatory cytokines” value is “markedly inhibits”.
